Assay results from the supplement of paper PMC9005190.

Tests used:
AMY3 [1] = test: pEC50 of agonist-induced pathway activation (ebBRET)
AMY3 [2] = test: Emax (maximal agonist-induced change in ebBRET relative to vehicle) (% of vehicle response (amplitude of change)); higher = larger response (for Gs, larger decrease in membrane ebBRET, i.e. stronger Gs activation)
B2 [3] = molecular target: T1, B2 (UniProt P30411); test: pEC50 of agonist-induced pathway activation (ebBRET)
T1 sequence (whole entry): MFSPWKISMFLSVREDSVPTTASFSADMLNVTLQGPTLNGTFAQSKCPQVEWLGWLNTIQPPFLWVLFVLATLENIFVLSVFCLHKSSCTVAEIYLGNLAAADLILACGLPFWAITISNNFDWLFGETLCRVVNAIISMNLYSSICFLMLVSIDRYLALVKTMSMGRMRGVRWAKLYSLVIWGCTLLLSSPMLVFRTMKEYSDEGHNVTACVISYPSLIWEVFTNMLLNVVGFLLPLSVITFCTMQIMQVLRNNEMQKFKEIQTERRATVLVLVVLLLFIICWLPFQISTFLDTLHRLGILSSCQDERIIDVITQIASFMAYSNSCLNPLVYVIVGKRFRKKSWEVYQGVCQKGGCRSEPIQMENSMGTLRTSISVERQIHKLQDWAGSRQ

B1 [4] = molecular target: T2, B1 (UniProt P46663); test: as above
T2 sequence (whole entry): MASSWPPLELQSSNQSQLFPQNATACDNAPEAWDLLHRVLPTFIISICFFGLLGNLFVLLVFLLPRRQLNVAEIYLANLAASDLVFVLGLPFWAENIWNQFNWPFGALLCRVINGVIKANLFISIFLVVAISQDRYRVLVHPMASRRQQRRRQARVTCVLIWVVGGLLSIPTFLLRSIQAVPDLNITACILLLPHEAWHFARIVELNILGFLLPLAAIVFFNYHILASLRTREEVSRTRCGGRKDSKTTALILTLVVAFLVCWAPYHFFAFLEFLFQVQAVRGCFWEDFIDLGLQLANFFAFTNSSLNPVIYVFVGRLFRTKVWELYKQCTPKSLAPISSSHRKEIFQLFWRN

B2 [5] = molecular target: T1, B2; test: Emax (maximal agonist-induced change in ebBRET relative to vehicle) (% of vehicle response (amplitude of change)); higher = larger response (for Gs, larger decrease in membrane ebBRET, i.e. stronger Gs activation)
B1 [6] = molecular target: T2, B1; test: as above
mGluR8 = mGluR8 (UniProt O00222); test: pEC50 of agonist-induced pathway activation (ebBRET)
GPR4 [7] = molecular target: GPR4 (UniProt P46093); test: as above
GPR65 [8] = molecular target: GPR65 (UniProt Q8IYL9); test: as above
GPR68 [9] = molecular target: GPR68 (UniProt Q15743); test: as above
GPR4 [10] = molecular target: GPR4 (UniProt P46093); test: Emax (maximal agonist-induced change in ebBRET relative to vehicle) (% of vehicle response (amplitude of change)); higher = larger response (for Gs, larger decrease in membrane ebBRET, i.e. stronger Gs activation)
GPR65 [11] = molecular target: GPR65 (UniProt Q8IYL9); test: as above
GPR68 [12] = molecular target: GPR68 (UniProt Q15743); test: as above
HCA3 [13] = molecular target: HCA3 (UniProt P49019); test: pEC50 of agonist-induced pathway activation (ebBRET)
HCA3 [14] = molecular target: HCA3 (UniProt P49019); test: Emax (maximal agonist-induced change in ebBRET relative to vehicle) (% of vehicle response (amplitude of change)); higher = larger response (for Gs, larger decrease in membrane ebBRET, i.e. stronger Gs activation)

Chain of mGluR8 (O00222 whole entry): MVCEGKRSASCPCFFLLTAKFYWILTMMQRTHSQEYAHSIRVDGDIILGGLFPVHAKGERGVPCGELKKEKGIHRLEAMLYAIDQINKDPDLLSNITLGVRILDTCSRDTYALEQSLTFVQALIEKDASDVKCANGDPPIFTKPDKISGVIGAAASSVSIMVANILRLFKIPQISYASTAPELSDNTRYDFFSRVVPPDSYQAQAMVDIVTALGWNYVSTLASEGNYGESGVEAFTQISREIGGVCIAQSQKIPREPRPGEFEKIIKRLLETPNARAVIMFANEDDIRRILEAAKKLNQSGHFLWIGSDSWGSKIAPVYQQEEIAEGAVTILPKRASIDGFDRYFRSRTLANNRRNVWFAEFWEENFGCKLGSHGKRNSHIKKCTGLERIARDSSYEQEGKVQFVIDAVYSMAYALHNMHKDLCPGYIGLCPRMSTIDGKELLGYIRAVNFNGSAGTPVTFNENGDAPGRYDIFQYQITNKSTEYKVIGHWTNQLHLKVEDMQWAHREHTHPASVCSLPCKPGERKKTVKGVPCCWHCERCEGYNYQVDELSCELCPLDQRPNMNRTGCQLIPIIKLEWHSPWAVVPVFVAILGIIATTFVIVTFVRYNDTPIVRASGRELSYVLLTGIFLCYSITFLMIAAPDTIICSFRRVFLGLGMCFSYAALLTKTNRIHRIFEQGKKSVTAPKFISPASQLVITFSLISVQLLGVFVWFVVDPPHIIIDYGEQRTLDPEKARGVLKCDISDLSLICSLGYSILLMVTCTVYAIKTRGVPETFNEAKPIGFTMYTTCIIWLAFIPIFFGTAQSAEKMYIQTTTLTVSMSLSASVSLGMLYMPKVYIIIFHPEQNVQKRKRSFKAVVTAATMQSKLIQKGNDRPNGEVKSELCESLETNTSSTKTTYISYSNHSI
Chain of GPR65 (Q8IYL9 whole entry): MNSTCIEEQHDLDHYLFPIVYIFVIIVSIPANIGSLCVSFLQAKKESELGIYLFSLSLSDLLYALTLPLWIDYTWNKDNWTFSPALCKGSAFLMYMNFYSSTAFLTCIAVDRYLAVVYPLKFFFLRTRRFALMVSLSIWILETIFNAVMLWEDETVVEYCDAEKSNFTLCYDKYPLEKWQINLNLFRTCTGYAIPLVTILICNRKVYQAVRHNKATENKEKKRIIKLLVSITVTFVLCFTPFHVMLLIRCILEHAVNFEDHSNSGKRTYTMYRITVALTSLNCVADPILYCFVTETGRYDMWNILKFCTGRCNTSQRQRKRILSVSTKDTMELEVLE
Chain of GPR4 (P46093 whole entry, looked up): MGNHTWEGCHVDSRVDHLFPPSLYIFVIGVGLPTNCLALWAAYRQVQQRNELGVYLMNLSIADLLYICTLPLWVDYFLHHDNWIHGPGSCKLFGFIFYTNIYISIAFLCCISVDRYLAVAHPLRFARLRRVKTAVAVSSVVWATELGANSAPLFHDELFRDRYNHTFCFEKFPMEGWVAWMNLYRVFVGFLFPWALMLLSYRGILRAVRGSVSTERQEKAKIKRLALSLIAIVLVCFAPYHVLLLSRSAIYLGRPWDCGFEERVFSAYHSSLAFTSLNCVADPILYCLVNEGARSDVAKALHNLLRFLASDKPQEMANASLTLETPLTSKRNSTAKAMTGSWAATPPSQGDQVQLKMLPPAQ
Chain of HCA3 (P49019 whole entry): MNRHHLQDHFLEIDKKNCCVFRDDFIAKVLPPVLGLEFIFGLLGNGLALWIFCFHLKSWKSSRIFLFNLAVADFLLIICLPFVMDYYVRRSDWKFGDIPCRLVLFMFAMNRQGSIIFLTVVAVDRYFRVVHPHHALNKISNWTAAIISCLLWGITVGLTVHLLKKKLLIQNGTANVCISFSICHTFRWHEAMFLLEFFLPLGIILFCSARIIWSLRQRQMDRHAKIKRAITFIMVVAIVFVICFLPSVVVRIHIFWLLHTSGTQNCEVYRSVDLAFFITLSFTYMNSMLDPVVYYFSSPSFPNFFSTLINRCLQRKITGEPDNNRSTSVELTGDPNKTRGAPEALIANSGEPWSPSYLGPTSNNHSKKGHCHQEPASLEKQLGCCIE
Chain of GPR68 (Q15743 whole entry): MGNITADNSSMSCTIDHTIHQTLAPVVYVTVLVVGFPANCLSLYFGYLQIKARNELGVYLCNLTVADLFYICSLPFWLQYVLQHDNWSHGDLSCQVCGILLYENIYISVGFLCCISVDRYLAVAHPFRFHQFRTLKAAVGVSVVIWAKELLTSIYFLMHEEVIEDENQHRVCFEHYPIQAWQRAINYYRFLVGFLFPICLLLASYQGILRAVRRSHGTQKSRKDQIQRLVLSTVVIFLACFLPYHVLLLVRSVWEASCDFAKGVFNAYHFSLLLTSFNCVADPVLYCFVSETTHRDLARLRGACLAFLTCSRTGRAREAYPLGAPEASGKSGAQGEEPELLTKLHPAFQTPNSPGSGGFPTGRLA

CC[C@H](C)[C@H](NC(=O)[C@H](C)NC(=O)CNC(=O)[C@H](Cc1ccccc1)NC(=O)[C@H](CC(N)=O)NC(=O)[C@H](CC(N)=O)NC(=O)[C@H](CO)NC(=O)[C@H](CO)NC(=O)[C@H](Cc1cnc[nH]1)NC(=O)[C@@H](NC(=O)[C@H](CC(C)C)NC(=O)[C@H](Cc1ccccc1)NC(=O)[C@H](CC(N)=O)NC(=O)[C@H](C)NC(=O)[C@H](CC(C)C)NC(=O)[C@H](CCCNC(=N)N)NC(=O)[C@H](CCC(N)=O)NC(=O)[C@@H](NC(=O)[C@H](C)NC(=O)[C@@H]1CSSC[C@H](NC(=O)[C@@H](N)CCCCN)C(=O)N[C@@H](CC(N)=O)C(=O)N[C@@H]([C@@H](C)O)C(=O)N[C@@H](C)C(=O)N[C@@H]([C@@H](C)O)C(=O)N1)[C@@H](C)O)C(C)C)C(=O)N[C@@H](CC(C)C)C(=O)N[C@@H](CO)C(=O)N[C@@H](CO)C(=O)N[C@H](C(=O)N[C@@H](CC(N)=O)C(=O)N[C@H](C(=O)NCC(=O)N[C@@H](CO)C(=O)N[C@@H](CC(N)=O)C(=O)N[C@H](C(=O)N[C@@H](Cc1ccc(O)cc1)C(N)=O)[C@@H](C)O)C(C)C)[C@@H](C)O [Amylin]
Conditions | Emax, pathway (G protein / arrestin sensor): G12 | Emax, pathway (G protein / arrestin sensor): G13 | Emax, pathway (G protein / arrestin sensor): G15 | Emax, pathway (G protein / arrestin sensor): Gs | pEC50, pathway (G protein / arrestin sensor): G12 | pEC50, pathway (G protein / arrestin sensor): G13 | pEC50, pathway (G protein / arrestin sensor): G15 | pEC50, pathway (G protein / arrestin sensor): Gs
AMY3 [1] | – | – | – | – | 8.6 | 8.49 | 7.22 | 7.79
AMY3 [2] | 62.3 | 271 | 122 | 21.4 | – | – | – | –

NCCCC[C@H](N)C(=O)N[C@@H](CCCN=C(N)N)C(=O)N1CCC[C@H]1C(=O)N1CCC[C@H]1C(=O)NCC(=O)N[C@@H](Cc1ccccc1)C(=O)N[C@@H](CO)C(=O)N1CCC[C@H]1C(=O)N[C@@H](Cc1ccccc1)C(=O)N[C@@H](CCCN=C(N)N)C(=O)O [Kallidin]
Conditions | Emax, B1 [6] | Emax, B2 [5] | pEC50, B1 [4] | pEC50, B2 [3]
pathway (G protein / arrestin sensor): G11 | 201 | 802 | 6.8 | 9.54
pathway (G protein / arrestin sensor): G12 | – | 83.2 | – | 10.2
pathway (G protein / arrestin sensor): G13 | – | 484 | – | 9.16
pathway (G protein / arrestin sensor): G14 | 162 | 871 | 6.88 | 9.54
pathway (G protein / arrestin sensor): G15 | 78.9 | 1050 | 7.54 | 8.75
pathway (G protein / arrestin sensor): Gi1 | 94.8 | 478 | 6.64 | 8.14
pathway (G protein / arrestin sensor): Gi2 | 65.7 | 257 | 6.75 | 7.87
pathway (G protein / arrestin sensor): GoA | 81.3 | 149 | 6.7 | 7.83
pathway (G protein / arrestin sensor): GoB | 161 | 360 | 6.78 | 8.14
pathway (G protein / arrestin sensor): Gq | 171 | 576 | 6.91 | 9.71
pathway (G protein / arrestin sensor): Gz | 32.3 | 204 | 6.93 | 8.65
pathway (G protein / arrestin sensor): βarr1/GRK2 | – | 1740 | – | 8.62
pathway (G protein / arrestin sensor): βarr2 | – | 889 | – | 8.54
pathway (G protein / arrestin sensor): βarr2/GRK2 | – | 1180 | – | 8.52

NC(CCC(=O)O)C(=O)O (stereo not drawn) [Glutamate]
mGluR8
Conditions | pEC50
pathway (G protein / arrestin sensor): Gi1 | 5.6
pathway (G protein / arrestin sensor): Gi2 | 5.52
pathway (G protein / arrestin sensor): GoA | 6.07
pathway (G protein / arrestin sensor): GoB | 5.99
pathway (G protein / arrestin sensor): Gz | 5.49

Cl [pH (proton)]
Conditions | Emax, GPR4 [10] | Emax, GPR65 [11] | Emax, GPR68 [12] | pEC50, GPR4 [7] | pEC50, GPR65 [8] | pEC50, GPR68 [9]
pathway (G protein / arrestin sensor): G11 | 164 | – | 849 | 6.64 | – | 7.35
pathway (G protein / arrestin sensor): G12 | – | – | 63.4 | – | – | 7.71
pathway (G protein / arrestin sensor): G13 | – | 117 | 65.6 | – | 7.9 | 8.24
pathway (G protein / arrestin sensor): G14 | 61.3 | – | 871 | 6.26 | – | 7.2
pathway (G protein / arrestin sensor): G15 | 111 | – | 446 | 6.59 | – | 6.49
pathway (G protein / arrestin sensor): Gi1 | – | – | 582 | – | – | 6.56
pathway (G protein / arrestin sensor): Gi2 | – | – | 454 | – | – | 6.63
pathway (G protein / arrestin sensor): GoA | – | – | 296 | – | – | 7.17
pathway (G protein / arrestin sensor): GoB | – | 86.8 | 428 | – | 6.3 | 7.41
pathway (G protein / arrestin sensor): Gq | 152 | – | 749 | 6.73 | – | 7.4
pathway (G protein / arrestin sensor): Gs | 44.2 | 32.3 | 44.9 | 7.91 | 7 | 6.51
pathway (G protein / arrestin sensor): βarr1/GRK2 | 41.4 | 57.6 | 76.2 | – | 5.98 | 6.25
pathway (G protein / arrestin sensor): βarr2 | 173 | 68.8 | 103 | 6.99 | 6.31 | 6
pathway (G protein / arrestin sensor): βarr2/GRK2 | – | – | 147 | – | – | 6.07

CCCCCC(O)CC(=O)O (stereo not drawn) [3-HOA]
Conditions | Emax, HCA3 [14] | pEC50, HCA3 [13]
pathway (G protein / arrestin sensor): G13 | 97.9 | 4.08
pathway (G protein / arrestin sensor): Gi1 | 415 | 5.63
pathway (G protein / arrestin sensor): Gi2 | 190 | 5.71
pathway (G protein / arrestin sensor): GoA | 187 | 5.5
pathway (G protein / arrestin sensor): GoB | 317 | 5.45
pathway (G protein / arrestin sensor): Gz | 178 | 5.25
pathway (G protein / arrestin sensor): βarr1/GRK2 | 605 | 3.49
pathway (G protein / arrestin sensor): βarr2 | 115 | 3.52
pathway (G protein / arrestin sensor): βarr2/GRK2 | 487 | 3.47
